Source: EP4631938A1, “NITROGEN-CONTAINING HETEROCYCLE WITH SEROTONIN RECEPTOR-BINDING ACTIVITY AND CARBOCYCLIC DERIVATIVE” (Shionogi & Co., Ltd, priority 2022, dated 2024)
Where two headings read alike, the source gives them in different places.

Legend:
[1] = molecular target: T1, human recombinant 5-HT2A receptor (Homo sapiens, UniProt P28223); experiment: Test Example 1-2: 5-HT2A receptor binding inhibition test ([3H]-Ketanserin; non-specific ligand Ketanserin)
T1 construct: expressed in transfected cells; host or cells: Jump-In HEK cells (membrane preparation)
T1 sequence (P28223 whole entry): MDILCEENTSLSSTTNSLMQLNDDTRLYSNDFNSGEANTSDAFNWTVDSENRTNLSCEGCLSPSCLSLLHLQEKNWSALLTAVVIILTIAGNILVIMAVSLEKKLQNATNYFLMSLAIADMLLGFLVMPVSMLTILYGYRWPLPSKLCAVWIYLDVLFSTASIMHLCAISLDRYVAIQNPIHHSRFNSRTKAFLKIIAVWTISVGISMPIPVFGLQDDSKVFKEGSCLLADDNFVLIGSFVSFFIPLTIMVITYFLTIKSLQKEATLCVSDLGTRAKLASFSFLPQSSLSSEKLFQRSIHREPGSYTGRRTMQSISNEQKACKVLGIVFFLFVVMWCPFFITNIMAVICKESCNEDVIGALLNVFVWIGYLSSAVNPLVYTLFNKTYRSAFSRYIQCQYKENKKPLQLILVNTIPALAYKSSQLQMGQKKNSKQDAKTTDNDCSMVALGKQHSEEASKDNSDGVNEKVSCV
Procedure: The Kd value is calculated when the lot of the cell membrane is changed. 1 mmol/L non-specific binding calculating compound dissolved in DMSO or DMSO is previously dispensed to the microplate by 0.5 µL, and the cell membrane is diluted with an Assay buffer. The radioactive ligand solution is diluted step by step, and counts are checked with a liquid scintillator. The Assay buffer containing diluted cell membranes is dispensed by 50 µL/well into the microplate. The radioactive ligand solution is then dispensed by 50 µL/well into the microplate and the plate is sealed. The microplate is allowed to stand for 1.5 hours at room temperature (25°C). During this time, 50 mmol/L Tris-HCl (pH 7.4) is dispensed by 50 µL/well into the UniFilter plate and allowed to stand at 4°C for 1 hour or longer. Thereafter, filtration is performed with a Cell Harvester (PerkinElmer). The radioactive ligand solution is dispensed by 10 µL/well into empty wells of the UniFilter plate. After drying the UniFilter plate at room temperature, MicroScinti20 is dispensed by 50 µL/well into the UniFilter plate, and the plate is sealed. UniFilter plate is allowed to stand at room temperature overnight. The radioactivity of [^3H]-Ketanserin bound to the 5-HT2A receptor is measured using Microbeta2 (PerkinElmer) at a measurement time of 1 min/well. The Saturation curve is drawn from the measured value, and the Kd value is calculated from the slope of the Scatchard Plot.
A compound solution dissolved in DMSO is dispensed to a microplate by 0.5 µL, and a cell membrane and a hot ligand are each diluted with an Assay buffer. The Assay buffer containing diluted cell membrane is then dispensed by 50 µL/well into the microplate. The radioactive ligand solution is then dispensed by 50 µL/well into the microplate and the plate is sealed. Thereafter, the microplate is allowed to stand at room temperature (25°C) for 1.5 hours. During this time, 50 mmol/L Tris-HCl (pH 7.4) is dispensed by 50 µL/well into the UniFilter plate and allowed to stand at 4°C for 1 hour or longer. Thereafter, filtration is performed with a Cell Harvester (PerkinElmer). After drying the UniFilter plate at room temperature, MicroScinti20 is dispensed by 50 µL/well into the UniFilter plate, and the plate is sealed. UniFilter plate is allowed to stand at room temperature overnight. The radioactivity of [^3H]-Ketanserin bound to the 5-HT2A receptor is measured using Microbeta2 (PerkinElmer) at a measurement time of 1 min/well. Non-specific binding is calculated from the radioactivity of [^3H]-Ketanserin in the presence of 500 µmol/L Ketanserin of unlabeled ligand, and total binding is calculated from the radioactivity of [^3H]-Ketanserin in the absence of the compound of the present invention (Vehicle). Finally, the Ki value is calculated from the dose-response curve.
(§1) (The binding activity of the compound according to the present invention is calculated from the following binding inhibition rate (%).) Inhibition rate (%) = [1−(c−a)/(b−a)] × 100 [formula] • a; average cpm of non-specific binding • b; average cpm of total binding • c; cpm in the presence of the test compound
(§2) The compounds of the present invention were tested essentially as described above.

[2] = molecular target: T2, human recombinant 5-HT2C receptor (Homo sapiens, UniProt P28335); experiment: Test Example 2: 5-HT2C receptor binding inhibition test ([3H]-Mesulergine; non-specific ligand Serotonin HCl); settings: human serotonin 5-HT2C receptor binding activity
T2 construct: expressed in transfected cells; host or cells: Jump-In HEK cells (membrane preparation)
T2 sequence (P28335 33-458): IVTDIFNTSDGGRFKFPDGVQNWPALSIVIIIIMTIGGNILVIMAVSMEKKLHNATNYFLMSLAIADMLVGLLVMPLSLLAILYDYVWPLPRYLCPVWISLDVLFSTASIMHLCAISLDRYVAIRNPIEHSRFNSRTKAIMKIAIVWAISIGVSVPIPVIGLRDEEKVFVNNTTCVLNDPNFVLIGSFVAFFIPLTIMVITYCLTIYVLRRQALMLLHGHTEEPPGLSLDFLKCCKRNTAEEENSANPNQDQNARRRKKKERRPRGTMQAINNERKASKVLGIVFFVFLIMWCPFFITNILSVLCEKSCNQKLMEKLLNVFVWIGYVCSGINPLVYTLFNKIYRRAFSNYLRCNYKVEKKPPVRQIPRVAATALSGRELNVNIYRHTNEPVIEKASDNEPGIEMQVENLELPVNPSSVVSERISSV
Procedure: The Kd value is calculated when the lot of the cell membrane is changed. 1 mmol/L non-specific binding calculating compound dissolved in DMSO or DMSO is previously dispensed to the microplate by 0.5 µL, and the cell membrane is diluted with an Assay buffer. The radioactive ligand solution is diluted step by step, and counts are checked with a liquid scintillator. The Assay buffer containing diluted cell membranes is dispensed by 50 µL/well into the microplate. The radioactive ligand solution is then dispensed by 50 µL/well into the microplate and the plate is sealed. The microplate is allowed to stand at 37°C for 2 hours. During this time, 50 mmol/L Tris-HCl (pH 7.4) is dispensed by 50 µL/well into the GF/B UniFilter plate and allowed to stand at 4°C for 1 hour or longer. Thereafter, filtration is performed with a Cell Harvester (PerkinElmer). The radioactive ligand solution is dispensed by 10 µL/well into empty wells of the GF/B UniFilter plate. After drying the GF/B UniFilter plate at room temperature, MicroScinti20 is dispensed by 50 µL/well into the GF/B UniFilter plate, and the plate is sealed. GF/B UniFilter plate is allowed to stand at room temperature overnight. The radioactivity of [^3H]-Mesulergine bound to the 5-HT2C receptor is measured using Microbeta2 (PerkinElmer) at a measurement time of 1 min/well. The Saturation curve is drawn from the measured value, and the Kd value is calculated from the slope of the Scatchard Plot.
A compound solution dissolved in DMSO is dispensed to a microplate by 0.5 µL, and a cell membrane and a hot ligand are each diluted with an Assay buffer. The Assay buffer containing diluted cell membrane is then dispensed by 50 µL/well into the microplate. The radioactive ligand solution is then dispensed by 50 µL/well into the microplate and the plate is sealed. The microplate is then allowed to stand at 37°C for 2 hours. During this time, 50 mmol/L Tris-HCl (pH 7.4) is dispensed by 50 µL/well into the GF/B UniFilter plate and allowed to stand at 4°C for 1 hour or longer. Thereafter, filtration is performed with a Cell Harvester (PerkinElmer). After drying the GF/B UniFilter plate at room temperature, MicroScinti20 is dispensed by 50 µL/well into the GF/B UniFilter plate, and the plate is sealed. GF/B UniFilter plate is allowed to stand at room temperature overnight. The radioactivity of [^3H]-Mesulergine bound to the 5-HT2C receptor is measured using Microbeta2 (PerkinElmer) at a measurement time of 1 min/well. Non-specific binding is calculated from the radioactivity of [^3H]-Mesulergine in the presence of 500 µmol/L Serotonin HCl of unlabeled ligand, and total binding is calculated from the radioactivity of [^3H]-Mesulergine in the absence of the compound of the present invention (Vehicle). Finally, the Ki value is calculated from the dose-response curve.
as §1, §2

[3] = [3H]-Ketanserin; non-specific binding with 500 µmol/L Ketanserin; room temperature (25°C), 1.5 hours; read-out: h 5-HT2A Ki
[4] = read-out: h 5-HT2A Ki; [3H]-Ketanserin; non-specific binding with 500 µmol/L Ketanserin; room temperature (25°C), 1.5 hours

Compound	Ki [1, 3]	Ki [2]	Ki [1, 4]
CC(CO)Oc1cnc(Nc2ncc(C(F)(F)F)cc2F)cc1-c1c(Br)cnn1C (single isomer, unassigned) [Compound I-224]			0.521 nM
CC(CO)Oc1cnc(Nc2ncc(C(F)(F)F)cc2F)cc1-c1c(Br)cnn1C (single isomer, unassigned) [Compound I-225]			0.396 nM
Cn1ncc(Br)c1-c1cc(Nc2ncc(Cl)cn2)ccc1OCCO [Compound I-119]	0.315 nM		
Cc1nc(C)c(-c2cc(Nc3ncc(C(F)(F)F)cc3F)c(F)cc2OCCO)c(C)n1 [Compound I-146]	0.678 nM		
Cc1cnn(C)c1-c1cc(Nc2ncc(Cl)cc2F)c(F)cc1OCCO [Compound I-160]	0.21 nM	3.01 nM	
Cn1ncc(Cl)c1-c1cc(Nc2ncc(C(F)(F)F)cn2)c(F)cc1OCCO [Compound I-161]	0.361 nM	1.13 nM	
Cn1ncc(Cl)c1-c1cc(Nc2ncc(Cl)cn2)c(F)cc1OCCO [Compound I-162]	0.395 nM	4.25 nM	
Cn1ncc(Cl)c1-c1cc(Nc2ccc(Cl)cn2)c(F)cc1OCCO [Compound I-163]	0.216 nM	1.26 nM	
Cn1ncc(Cl)c1-c1cc(Nc2ncc(F)cc2F)c(F)cc1OCCO [Compound I-164]	0.325 nM	2.09 nM	
Cn1ncc(Br)c1-c1cc(Nc2ncc(F)cn2)c(F)cc1OCCO [Compound I-165]	0.389 nM	9.78 nM	
Cc1nc(C)c(-c2cc(Nc3ncc(Cl)cc3F)c(F)cc2OCCO)c(C)n1 [Compound I-166]	0.67 nM	5.57 nM	
Cc1nc(C)c(-c2cc(Nc3ccc(Cl)cn3)c(F)cc2OCCO)c(C)n1 [Compound I-167]	0.511 nM	5.37 nM	
Cn1ncc(Br)c1-c1cc(Nc2ncc(OC(F)(F)F)cc2F)c(F)cc1OCCO [Compound I-168]	0.248 nM	0.162 nM	
COc1cnc(Nc2cc(-c3c(Cl)cnn3C)c(OCCO)cc2F)nc1 [Compound I-169]	0.738 nM	9.97 nM	
Cc1nc(C)c(-c2cc(Nc3ncc(OCC(F)(F)C(F)(F)F)cc3Cl)ncc2OCCO)c(C)n1 [Compound I-250]		2.43 nM	

Further lines, with some results ahead:

Ki [1, 3]	Ki [2]	Compound	Ki [1, 4]
8.31 nM	6.01 nM	COCc1nc(C)c(-c2cc(Nc3ncc(C4CC4(F)F)cc3Cl)ncc2OCCO)c(C)n1 (racemic) [Compound I-194]	
5.3 nM	9.63 nM	Cc1nc(C2CCCO2)nc(C)c1-c1cc(Nc2ncc(C(F)(F)F)cc2F)ncc1OCCO (racemic) [Compound I-198]	
1.66 nM	8.87 nM	Cc1nc(OCC2CCCO2)nc(C)c1-c1cc(Nc2ncc(C(F)(F)F)cc2Cl)ncc1OCCO (racemic) [Compound I-214]	
1.81 nM	5.53 nM	Cc1nc(C2CCO2)nc(C)c1-c1cc(Nc2ncc(C(F)(F)F)cc2Cl)ncc1OCCO (racemic) [Compound I-216]	
2.44 nM	3.43 nM	Cc1nc(COC2CCCOC2)nc(C)c1-c1cc(Nc2ncc(C(F)(F)F)cc2Cl)ncc1OCCO (racemic) [Compound I-382]	
0.212 nM	5.45 nM	Cn1ncc(F)c1-c1cc(Nc2ccc(C(F)(F)F)cn2)c(F)cc1OCCO [Compound I-170]	
0.16 nM	5.81 nM	Cn1ncc(F)c1-c1cc(Nc2ncc(Cl)cc2F)c(F)cc1OCCO [Compound I-171]	
0.812 nM	2.49 nM	Cc1cc(Cl)cnc1Nc1cc(-c2c(C)cnn2C)c(OCCO)cc1F [Compound I-172]	
1.42 nM	5.11 nM	Cc1nc(C)c(-c2cc(Nc3ncc(Cl)cc3C)c(F)cc2OCCO)c(C)n1 [Compound I-173]	
0.888 nM	2.15 nM	Cc1nc(C)c(-c2cc(Nc3ncc(OC(F)(F)F)cc3F)c(F)cc2OCCO)c(C)n1 [Compound I-174]	
1.92 nM	3.19 nM	Cc1nc(C)c(-c2cc(Nc3ncc(C(F)(F)F)cc3C)c(F)cc2OCCO)c(C)n1 [Compound I-175]	
0.453 nM	6.81 nM	Cc1cc(OC(F)F)cnc1Nc1cc(-c2c(C)cnn2C)c(OCCO)cn1 [Compound I-176]	
0.331 nM	0.63 nM	Cc1cc(OC(F)F)cnc1Nc1cc(-c2c(Br)cnn2C)c(OCCO)cn1 [Compound I-177]	
0.386 nM	3.34 nM	Cc1cnn(C)c1-c1cc(Nc2ncc(OC(F)F)cc2F)ncc1OCCO [Compound I-178]	
0.278 nM	0.296 nM	Cc1cc(OC(F)(F)F)cnc1Nc1cc(-c2c(Br)cnn2C)c(OCCO)cn1 [Compound I-179]	
0.346 nM	1.86 nM	Cc1cc(OC(F)(F)F)cnc1Nc1cc(-c2c(C)cnn2C)c(OCCO)cn1 [Compound I-180]	
0.984 nM	3.62 nM	Cc1nc(C)c(-c2cc(Nc3ncc(OC(F)(F)F)cc3C)ncc2OCCO)c(C)n1 [Compound I-181]	
0.475 nM	4.75 nM	CC(C)Oc1ccc(Nc2cc(-c3c(Br)cnn3C)c(OCCO)cn2)nc1 [Compound I-182]	
0.271 nM	1.22 nM	Cc1cnn(C)c1-c1cc(Nc2ncc(OC(F)(F)F)cc2Cl)ncc1OCCO [Compound I-183]	
3.84 nM	2.98 nM	COCc1nc(C)c(-c2cc(Nc3ncc(C(F)(F)F)cc3F)c(F)cc2OCCO)c(C)n1 [Compound I-184]	
